Experimental data: US20040200144A1, “Plant growth regulator and a method of producing the regulator” (Dainichiseika Color & Chemicals Mfg. Co., Ltd., priority 2003, published 2004)

What was measured:
Assay type in all cases: in vivo
green onion young plants = assay: Dwarfing test of green onion young plant; conditions: for Plant Height / Dwarfing Rate: 5 ml per cell on 5th day, measured 27th day; for Dwarfing Rate: vs comparative group
Experimental: (§1) 50 g of sodium tripolyphosphate was dissolved in 400 ml of distilled water at 80° C., 17.5 g of cinnamic acid was added to the sodium tripolyphosphate solution and dissolved by stirring, the resultant solution was diluted with distilled water until the total volume of solution was 500 ml, and thus 3.5% cinnamic acid aqueous solution (pH 6.5) was prepared. The aqueous solution was further diluted with distilled water 70 times or 17.5 times, and 0.05% cinnamic acid aqueous solution and 0.2% cinnamic acid aqueous solution were prepared, respectively.
(§2) Nursery soil for house use was filled into paper joint pots (each with 24 cells: 34×43×50 mm/cell), water was sufficiently given to the soil, and seeds of carrots were sowed. After seeding, the pot was placed in the same greenhouse as described above to sprout. Subsequently, on the 5th day, the cinnamic aqueous acid solutions were added to the nursery soil in the joint pots. One of the joint pots (24 cells) was prepared as a 0.05% cinnamic acid aqueous solution addition group, and 5 ml of the 0.05% cinnamic acid aqueous solution was added to the nursery soil of each cell. Another one of the join pots was prepared as a 0.2% cinnamic acid aqueous solution addition group, and 5 ml of the 0.2% cinnamic acid aqueous solution was added to the nursery soil of each cell. The other one of the joint pots was prepared as a comparative group in which 5 ml of water is added to each cell, instead of the cinnamic acid aqueous solution. Subsequently, the cultivation of carrot young plants in each group was continued under general conditions. On the 27th day, the heights of young plants in each group were measured, the dwarfing rate (%) was calculated, and the dwarfing effect of cinnamic acid aqueous solution on carrot young plants was examined. […].
In the same way as in Example 5 except that seeds of green onion were sowed, the dwarfing effect of cinnamic acid aqueous solution on green onion young plants was examined. […]

[1] = test system: Japanese radish young plants; assay: Dwarfing test of Japanese radish young plant; conditions: for Plant Height / Dwarfing Rate: 5 ml per cell on 5th day, measured 27th day; for Dwarfing Rate: vs comparative group
Experimental: as §1, §2
In the same way as in Example 5 except that seeds of Japanese radish were sowed, the dwarfing effect of cinnamic acid aqueous solution on Japanese radish young plants was examined. […]

lettuce young plants = assay: Dwarfing test of lettuce young plant; conditions: for Plant Height / Dwarfing Rate: 5 ml per cell on 5th day, measured 20th day; for Dwarfing Rate: vs comparative group
Experimental: as §1, §2
In the same way as in Example 5 except that seeds of lettuce were sowed, and that heights of young plants in each group were measured on the 20th day, the dwarfing effect of cinnamic acid aqueous solution on lettuce young plants was examined. […]

burdock young plants = assay: Dwarfing test of burdock young plant; conditions: for Plant Height / Dwarfing Rate: 5 ml per cell on 4th day, measured 20th day; for Dwarfing Rate: vs comparative group
Experimental: as §1, §2
In the same way as in Example 12 except that seeds of burdock were sowed, the dwarfing effect of cinnamic acid aqueous solution on burdock young plants was examined. […]

turnip young plants = assay: Dwarfing test of turnip young plant; conditions: for Plant Height / Dwarfing Rate: 5 ml per cell on 4th day, measured 20th day; for Dwarfing Rate: vs comparative group
Experimental: as §1, §2
In the same way as in Example 12 except that seeds of color turnip were sowed, the dwarfing effect of cinnamic acid aqueous solution on turnip young plants was examined. […]

cucumber young plants = assay: Dwarfing test of cucumber young plant; conditions: for Plant Height / Dwarfing Rate: 5 ml per cell on 7th day, measured 20th day; for Dwarfing Rate: vs comparative group
Experimental: After seeding, the pot was placed in the same greenhouse as described above to sprout. Subsequently, on the 5th day, the cinnamic aqueous acid solutions were added to the nursery soil in the joint pots. One of the joint pots (24 cells) was prepared as a 0.05% cinnamic acid aqueous solution addition group, and 5 ml of the 0.05% cinnamic acid aqueous solution was added to the nursery soil of each cell. Another one of the join pots was prepared as a 0.2% cinnamic acid aqueous solution addition group, and 5 ml of the 0.2% cinnamic acid aqueous solution was added to the nursery soil of each cell. […] Subsequently, the cultivation of carrot young plants in each group was continued under general conditions. On the 27th day, the heights of young plants in each group were measured, the dwarfing rate (%) was calculated, and the dwarfing effect of cinnamic acid aqueous solution on carrot young plants was examined. From the results in Table 5, it became evident that the 0.05% and 0.2% cinnamic acid aqueous solutions are effective in dwarfing carrot young plants. In the same way as in Example 5 except that seeds of cauliflower were sowed, the cinnamic acid solutions were added to the nursery soil in the joint pot on the 4th day, and that heights of young plants in each group were measured on the 20th day, the dwarfing effect of cinnamic acid aqueous solution on cauliflower young plants was examined. From the results in Table 12, it became evident that the cinnamic acid aqueous solutions are effective in dwarfing cauliflower young plants. In the same way as in Example 12 except that seeds of tomato were sowed, and that the cinnamic acid solutions were added to the nursery soil of the joint pot on the 7th day, the dwarfing effect of cinnamic acid aqueous solution on tomato young plants was examined. From the results in Table 17, it became evident that the cinnamic acid aqueous solutions are effective in dwarfing tomato young plants. In the same way as in Example 17 except that seeds of cucumber were sowed, the dwarfing effect of cinnamic acid aqueous solution on cucumber young plants was examined. From the results in Table 18, it became evident that the cinnamic acid aqueous solutions are effective in dwarfing cucumber young plants.

[2] = test system: Cucumis melo var. makuwa young plants; assay: Dwarfing test of Cucumis melo var. makuwa young plant; conditions: for Plant Height / Dwarfing Rate: 5 ml per cell on 7th day, measured 27th day; for Dwarfing Rate: vs comparative group
Experimental: as §1, §2
In the same way as in Example 12 except that seeds of tomato were sowed, and that the cinnamic acid solutions were added to the nursery soil of the joint pot on the 7th day, the dwarfing effect of cinnamic acid aqueous solution on tomato young plants was examined. […].
In the same way as in Example 17 except that seeds of watermelon were sowed, and that plant heights were measured on the 27th day, the dwarfing effect of cinnamic acid aqueous solution on watermelon young plants was examined. […].
In the same way as in Example 21 except that seeds of Cucumis melo var. makuwa were sowed, the dwarfing effect of cinnamic acid aqueous solution on Cucumis melo var. makuwa young plants was examined. […]

For `O=C(O)C=Cc1ccccc1` [cinnamic acid], the “Plant Height” value (green onion young plants; 0.05% aqueous solution) was 7.2 cm, the “Dwarfing Rate” value (green onion young plants; 0.05% aqueous solution) was 25.8% and the “Plant Height” value (green onion young plants; 0.2% aqueous solution) was 5.6 cm. For the same compound, the “Dwarfing Rate” value (green onion young plants; 0.2% aqueous solution) was 42.3%, the dwarfing effect (green onion young plants; green onion young plants, 0.05% and 0.2% aqueous solutions) was “effective” and the “Plant Height” value ([1]; 0.05% aqueous solution) was 15.3 cm. The “Dwarfing Rate” value ([1]; 0.05% aqueous solution) was 1.9%, the “Plant Height” value ([1]; 0.2% aqueous solution) was 10.9 cm and the “Dwarfing Rate” value ([1]; 0.2% aqueous solution) was 30.1%. The dwarfing effect ([1]; Japanese radish young plants, 0.05% and 0.2% aqueous solutions) was “effective”, the “Plant Height” value (lettuce young plants; 0.05% aqueous solution) was 5.7 cm and the “Dwarfing Rate” value (lettuce young plants; 0.05% aqueous solution) was 6.6%. For the same compound, the “Plant Height” value (lettuce young plants; 0.2% aqueous solution) was 4.3 cm, the “Dwarfing Rate” value (lettuce young plants; 0.2% aqueous solution) was 29.5% and the dwarfing effect (lettuce young plants; lettuce young plants, 0.05% and 0.2% aqueous solutions) was “effective”. The “Plant Height” value (burdock young plants; 0.05% aqueous solution) was 4.9 cm, the “Dwarfing Rate” value (burdock young plants; 0.05% aqueous solution) was 21.0% and the “Plant Height” value (burdock young plants; 0.2% aqueous solution) was 4.3 cm. For the same compound, the “Dwarfing Rate” value (burdock young plants; 0.2% aqueous solution) was 30.6%, the dwarfing effect (burdock young plants; burdock young plants, 0.05% and 0.2% aqueous solutions) was “effective” and the “Plant Height” value (turnip young plants; 0.05% aqueous solution) was 7.0 cm. For the same compound, the “Dwarfing Rate” value (turnip young plants; 0.05% aqueous solution) was 23.1%, the “Plant Height” value (turnip young plants; 0.2% aqueous solution) was 6.0 cm and the “Dwarfing Rate” value (turnip young plants; 0.2% aqueous solution) was 34.1%. The dwarfing effect (turnip young plants; turnip young plants, 0.05% and 0.2% aqueous solutions) was “effective”, the “Plant Height” value (cucumber young plants; 0.05% aqueous solution) was 7.8 cm and the “Dwarfing Rate” value (cucumber young plants; 0.05% aqueous solution) was 21.2%. For the same compound, the “Plant Height” value (cucumber young plants; 0.2% aqueous solution) was 6.2 cm, the “Dwarfing Rate” value (cucumber young plants; 0.2% aqueous solution) was 37.4% and the dwarfing effect (cucumber young plants; cucumber young plants, 0.05% and 0.2% aqueous solutions) was “effective”. The “Plant Height” value ([2]; 0.05% aqueous solution) was 6.1 cm, the “Dwarfing Rate” value ([2]; 0.05% aqueous solution) was 6.2% and the “Plant Height” value ([2]; 0.2% aqueous solution) was 4.7 cm. The “Dwarfing Rate” value ([2]; 0.2% aqueous solution) was 27.7% and the dwarfing effect ([2]; Cucumis melo var. makuwa young plants, 0.05% and 0.2% aqueous solutions) was “effective”.
